28 compounds from patent publication US10793580B2, “Substituted pyrazoloazepin-8-ones and their use as phosphodiesterase inhibitors” (LEO Pharma A/S, priority 2016, dated 2020) can be followed below.

human PDE4D catalytic domain, sequence (Q08499 380-740): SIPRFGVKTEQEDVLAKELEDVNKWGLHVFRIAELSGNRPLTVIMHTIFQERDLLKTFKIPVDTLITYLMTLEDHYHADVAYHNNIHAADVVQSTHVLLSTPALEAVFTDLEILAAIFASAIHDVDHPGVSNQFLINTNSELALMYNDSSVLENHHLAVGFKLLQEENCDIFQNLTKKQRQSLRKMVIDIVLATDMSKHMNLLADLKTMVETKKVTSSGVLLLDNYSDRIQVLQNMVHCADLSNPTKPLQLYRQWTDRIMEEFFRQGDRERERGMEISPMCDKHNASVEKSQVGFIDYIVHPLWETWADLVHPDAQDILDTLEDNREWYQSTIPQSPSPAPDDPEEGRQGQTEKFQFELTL

The first experiment concerns the target human PDE4D catalytic domain (Homo sapiens (Human), UniProt Q08499). Nature of the experiment: PDE4 Assay (TR-FRET, FAM-cAMP cleavage). Format: biochemical. Particulars: Table 16, Examples 277-296; read-out: PDE4 IC50 range. In a few lines:
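PDE4D catalytic domain (S380-L740) incubated briefly with unlabelled cAMP plus FAM-cAMP and titrated compound. Reaction stopped with binding buffer holding metal-ion nanoparticles that bind AMP phospho groups and Tb donor, and AMP formation read by TR-FRET. IC50 versus controls, reported as ranges (nM).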
In general terms: In TR-FRET formats the signal depends on donor and acceptor labels being close together.
For orientation: IC50 means the midpoint of a concentration-inhibition curve. Take `CCn1nc(C[C@@H](C)COC(=O)c2cnc(C)o2)c2c1C(=O)NCC1(CCOCC1)C2` [Example 282, [(2R)-3-(1-ethyl-8-oxo-spiro[6,7-dihydro-4H-pyrazolo[3,4-c]azepine-5,4′-tetrahydropyran]-3-yl)-2-methyl-propyl] 2-methyloxazole-5-carboxylate]: the IC50 is < 100 nM.
For the compound `CCn1nc(C[C@@H](C)COC(=O)C2CCN(C)CC2)c2c1C(=O)NCC1(CCOCC1)C2` [Example 292, [(2R)-3-(1-ethyl-8-oxo-spiro[6,7-dihydro-4H-pyrazolo[3,4-c]azepine-5,4′-tetrahydropyran]-3-yl)-2-methyl-propyl] 1-methylpiperidine-4-carboxylate], the half-maximal inhibitory concentration (IC50) lay in the range of 100 to 500 nM.

The experiment is the same for the next values; noted with them: Table 17, Examples 297-316; read-out: PDE4 IC50 range.
Turning to `CCn1nc(CC(C)(C)COC(=O)c2cncs2)c2c1C(=O)NCC1(CCOCC1)C2` [Example 306, [3-(1-ethyl-8-oxo-spiro[6,7-dihydro-4H-pyrazolo[3,4-c]azepine-5,4′-tetrahydro-pyran]-3-yl)-2,2-dimethyl-propyl] thiazole-5-carboxylate], the IC50 was < 100 nM.
`CCn1nc(CC(C)(C)COC(=O)c2cnc(C)nc2)c2c1C(=O)NCC1(CCOCC1)C2` [Example 308, [3-(1-ethyl-8-oxo-spiro[6,7-dihydro-4H-pyrazolo[3,4-c]azepine-5,4′-tetrahydropyran]-3-yl)-2,2-dimethyl-propyl] 2-methylpyrimidine-5-carboxylate]: the IC50 is < 100 nM.

Staying with this experiment, now noted: human PDE4D catalytic domain (UniProt Q08499 [S380-L740]); 50% inhibition of substrate cleavage; read-out: PDE4 IC50 range.
Consider `CCn1nc(CC(C)(C)COC(=O)c2ccc(C(=O)N3CCCCC3)cc2)c2c1C(=O)NCC1(CCOCC1)C2` [Example 222, [3-(1-ethyl-8-oxo-spiro[6,7-dihydro-4H-pyrazolo[3,4-c]azepine-5,4′-tetrahydro-pyran]-3-yl)-2,2-dimethyl-propyl] 4-(piperidine-1-carbonyl)benzoate], for which the IC50 was < 100 nM.
For the compound `CCn1nc(CC(C)(C)COC(=O)c2cccc(C(C)=O)c2)c2c1C(=O)NCC1(CCOCC1)C2` [Example 201, [3-(1-ethyl-8-oxo-spiro[6,7-dihydro-4H-pyrazolo[3,4-c]azepine-5,4′-tetrahydropyran]-3-yl)-2,2-dimethyl-propyl] 3-acetylbenzoate], the IC50 was < 100 nM.
As to `CCn1nc(CCCCOC(=O)c2ccc(S(=O)(=O)NC)cc2)c2c1C(=O)NCC1(CCOCC1)C2` [Example 131, 4-(1-ethyl-8-oxo-spiro[6,7-dihydro-4H-pyrazolo[3,4-c]azepine-5,4′-tetrahydropyran]-3-yl)butyl 4-(methyl-sulfamoyl)benzoate], the IC50 is < 100 nM.
As to `CCn1nc(CCCOC(=O)c2ccc(S(=O)(=O)C3CCCC3)cc2)c2c1C(=O)NCC1(CCOCC1)C2` [Example 94, 3-(1-ethyl-8-oxo-spiro[6,7-dihydro-4H-pyrazolo[3,4-c]azepine-5,4′-tetrahydropyran]-3-yl)propyl 4-cyclopentylsulfonylbenzoate], the IC50 was < 100 nM.
The same measure, in the same setting: for `CCn1nc(CCCOC(=O)c2ccc(OC)c(C(F)(F)F)c2)c2c1C(=O)NCC1(CCOCC1)C2` [Example 79, 3-(1-ethyl-8-oxo-spiro[6,7-dihydro-4H-pyrazolo[3,4-c]azepine-5,4′-tetrahydro-pyran]-3-yl)propyl 4-methoxy-3-(trifluoromethyl)benzoate] the value was < 100 nM.
With `CCn1nc(CCCOC(=O)c2ccc(Cl)cc2C)c2c1C(=O)NCC1(CCOCC1)C2` [Example 43, 3-(1-ethyl-8-oxo-spiro[6,7-dihydro-4H-pyrazolo[3,4-c]azepine-5,4′-tetrahydropyran]-3-yl)propyl 4-chloro-2-methyl-benzoate], the IC50 is < 100 nM.
The same measure, in the same setting: for `CCn1nc(CCCOC(=O)c2ccc(Cl)cc2)c2c1C(=O)NCC1(CCOCC1)C2` [Example 22, 3-(1-ethyl-8-oxo-spiro[6,7-dihydro-4H-pyrazolo[3,4-c]azepine-5,4′-tetrahydropyran]-3-yl)propyl 4-chlorobenzoate] the value was < 100 nM.
On to `CCn1nc(C[C@@H](C)COC(=O)c2ccc(C)cc2)c2c1C(=O)NCC1(CCOCC1)C2` [Example 140, [(2R)-3-(1-ethyl-8-oxo-spiro[6,7-dihydro-4H-pyrazolo[3,4-c]azepine-5,4′-tetrahydropyran]-3-yl)-2-methyl-propyl] 4-methylbenzoate], for which the IC50 is < 100 nM.
On the same count and under the same terms, for `CCn1nc(CCCOC(=O)c2ccc(C(=O)N3CCOCC3)cc2)c2c1C(=O)NCC1(CCOCC1)C2` [Example 109, 3-(1-ethyl-8-oxo-spiro[6,7-dihydro-4H-pyrazolo[3,4-c]azepine-5,4′-tetrahydropyran]-3-yl)propyl 4-(morpholine-4-carbonyl)benzoate] the value was < 100 nM.
For the compound `CCn1nc(C[C@@H](C)COC(=O)c2cccc(S(=O)(=O)N3CCCC3)c2)c2c1C(=O)NCC1(CCOCC1)C2` [Example 163, [(2R)-3-(1-ethyl-8-oxo-spiro[6,7-dihydro-4H-pyrazolo[6,7-c]azepine-5,4′-tetrahydropyran]-3-yl)-2-methyl-propyl] 3-pyrrolidin-1-ylsulfonylbenzoate], the IC50 was < 100 nM.
On the same count and under the same terms, next, `CCn1nc(CCCCOC(=O)c2ccc(OC)cc2)c2c1C(=O)NCC1(CCOCC1)C2` [Example 125, 4-(1-ethyl-8-oxo-spiro[6,7-dihydro-4H-pyrazolo[3,4-c]azepine-5,4′-tetrahydropyran]-3-yl)butyl 4-methoxybenzoate]: < 100 nM; `CCn1nc(C[C@@H](C)COC(=O)c2cccc(C(=O)N3CCN(C(C)=O)CC3)c2)c2c1C(=O)NCC1(CCOCC1)C2` [Example 185, [(2R)-3-(1-ethyl-8-oxo-spiro[6,7-dihydro-4H-pyrazolo[3,4-c]azepine-5,4′-tetrahydropyran]-3-yl)-2-methyl-propyl] 3-(4-acetylpiperazine-1-carbonyl)benzoate]: < 100 nM; `CCn1nc(CCCOC(=O)c2cccc(F)c2C)c2c1C(=O)NCC1(CCOCC1)C2` [Example 21, 3-(1-ethyl-8-oxo-spiro[6,7-dihydro-4H-pyrazolo[3,4-c]azepine-5,4′-tetrahydropyran]-3-yl)propyl 3-fluoro-2-methyl-benzoate]: < 100 nM.
For `CCn1nc(CCCOC(=O)c2ccc(F)c(F)c2)c2c1C(=O)NCC1(CCOCC1)C2` [Example 23, 3-(1-ethyl-8-oxo-spiro[6,7-dihydro-4H-pyrazolo[3,4-c]azepine-5,4′-tetrahydropyran]-3-yl)propyl 3,4-difluorobenzoate], the IC50 was < 100 nM.
The same measure, in the same setting: next, `CCn1nc(CCCOC(=O)c2cccc(F)c2)c2c1C(=O)NCC1(CCOCC1)C2` [Example 9, 3-(1-ethyl-8-oxo-spiro[6,7-dihydro-4H-pyrazolo[3,4-c]azepine-5,4′-tetrahydropyran]-3-yl)propyl 3-fluorobenzoate]: < 100 nM.
Consider `CCn1nc(C[C@@H](C)COC(=O)c2ccc(S(C)(=O)=O)cc2)c2c1C(=O)NCC1(CCOCC1)C2` [Example 155, [(2R)-3-(1-ethyl-8-oxo-spiro[6,7-dihydro-4H-pyrazolo[3,4-c]azepine-5,4′-tetrahydropyran]-3-yl)-2-methyl-propyl] 4-methylsulfonylbenzoate], for which the IC50 was < 100 nM.
With `CCn1nc(CCCOC(=O)C2CCCC2)c2c1C(=O)NCC1(CCOCC1)C2` [Example 5, 3-(1-ethyl-8-oxo-spiro[6,7-dihydro-4H-pyrazolo[3,4-c]azepine-5,4′-tetrahydropyran]-3-yl)propyl cyclopentanecarboxylate], the IC50 was < 100 nM.
The same measure, in the same setting: next, `CCn1nc(CCCCOC(=O)c2cscn2)c2c1C(=O)NCC1(CCOCC1)C2` [Example 269, 4-(1-ethyl-8-oxo-spiro[6,7-dihydro-4H-pyrazolo[3,4-c]azepine-5,4′-tetrahydropyran]-3-yl)butyl thiazole-4-carboxylate]: < 100 nM; `CCn1nc(C[C@@H](C)COC(=O)c2ccc(C(=O)N(C)C)cc2)c2c1C(=O)NCC1(CCOCC1)C2` [Example 171, [(2R)-3-(1-ethyl-8-oxo-spiro[6,7-dihydro-4H-pyrazolo[3,4-c]azepine-5,4′-tetrahydropyran]-3-yl)-2-methyl-propyl] 4-(di-methylcarbamoyl)benzoate]: < 100 nM.
With `CCn1nc(CCCOC(=O)c2ccc(OC)cc2)c2c1C(=O)NCC1(CCOCC1)C2` [Example 16, 3-(1-ethyl-8-oxo-spiro[6,7-dihydro-4H-pyrazolo[3,4-c]azepine-5,4′-tetrahydropyran]-3-yl)propyl 4-methoxybenzoate], the IC50 is < 100 nM.
On to `CCn1nc(CC(C)(C)COC(=O)c2cccc(F)c2)c2c1C(=O)NCC1(CCOCC1)C2` [Example 191, [3-(1-ethyl-8-oxo-spiro[6,7-dihydro-4H-pyrazolo[3,4-c]azepine-5,4′-tetrahydropyran]-3-yl)-2,2-dimethyl-propyl] 3-fluorobenzoate], for which the IC50 was < 100 nM.
On to `CCn1nc(C[C@@H](C)COC(=O)c2cccc(C(=O)N3CCN(C)CC3)c2)c2c1C(=O)NCC1(CCOCC1)C2` [Example 184, [(2R)-3-(1-ethyl-8-oxo-spiro[6,7-dihydro-4H-pyrazolo[3,4-c]azepine-5,4′-tetrahydropyran]-3-yl)-2-methyl-propyl] 3-(4-methylpiperazine-1-carbonyl)benzoate], for which the IC50 is < 100 nM.
The same measure, in the same setting: for `CCn1nc(CCCOC(=O)c2ccc(C#N)cc2)c2c1C(=O)NCC1(CCOCC1)C2` [Example 12, 3-(1-ethyl-8-oxo-spiro[6,7-dihydro-4H-pyrazolo[3,4-c]azepine-5,4′-tetrahydropyran]-3-yl) propyl 4-cyanobenzoate] the value was < 100 nM.
With `CCn1nc(CCCOC(=O)c2cc(OC)ccc2C(F)(F)F)c2c1C(=O)NCC1(CCOCC1)C2` [Example 80, 3-(1-ethyl-8-oxo-spiro[6,7-dihydro-4H-pyrazolo[3,4-c]azepine-5,4′-tetrahydro-pyran]-3-yl)propyl 5-methoxy-2-(trifluoromethyl)benzoate], the IC50 is < 100 nM.
